Results: patent US8614206B2 (Genentech, Inc., priority 2011, dated 2013)
Where two headings read alike, the source gives them in different places.

Key:
[1] = test system: MM1.S (multiple myeloma) cells; test: In vitro cell proliferation, MM1.S multiple myeloma cells (CellTiter-Glo, ATP); type: cell-based; details: Homo sapiens, MM1.S, 72 h, read-out: Prolif MM1S ATP (EC50)
Outline: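 BaF3 parental cells (medium with 2 ng/mL mIL-3) seeded at 2 k/well and MM1.S at 10 k/well, then exposed to test compound at 37° C, 5% CO2: BaF3 overnight, MM1.S for 72 hours. Viability read by CellTiter-Glo; IC50/EC50 values calculated.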

[2] = test system: BaF3 parental cells; test: In vitro cell proliferation, BaF3 parental line + IL3 (CellTiter-Glo); type: cell-based, murine; details: Mus musculus, BaF3, BaF3 parental cells with IL-3, incubated overnight
Procedure: (§1) BaF3 parental line was obtained from the DSMZ repository. BaF3 lines transfected with PIM 1 or PIM2 were generated. Mouse IL-3 was purchased from R&D Systems. G418 was purchased from Clontech. Media for BaF3 parental line contained RPMI, 10% FBS, 2 mM L-Glutamine, 2 ng/mL mIL-3. Media for BaF3 PIM1 & 2 lines contained RPMI, 10% FBS, 2 mM L-Glutamine, 250 μg/mL.
(§2) BaF3, a murine interleukin-3 dependent pro-B cell line, parental cells, BaF3 PIM1 cells, BaF3 PIM2 cells, and MM1.S (multiple myeloma) cells were seeded at 2 k/well, 5 k/well, 5 k/well, and 10 k/well respectively, in a 384-well plate, at 45 μL/well. Test compound was added at 5 μL/well. BaF3 cells (parental and transfected) were incubated overnight, while MM1.S cells were incubated for 72 hours at 37° C., 5% CO2. CELL TITER GLO® Reagent (Promega) was added at 50 μL/well, the plates were incubated for 30 minutes, and their luminescence read on an HT Analyst. IC50/EC50 values for the test compound were calculated.

[3] = target: PIM1 (Homo sapiens (Human), UniProt P11309); test: Pim kinase inhibition, PIM1 LC3K (Example 901); type: biochemical
Chain of PIM1 (P11309 whole entry): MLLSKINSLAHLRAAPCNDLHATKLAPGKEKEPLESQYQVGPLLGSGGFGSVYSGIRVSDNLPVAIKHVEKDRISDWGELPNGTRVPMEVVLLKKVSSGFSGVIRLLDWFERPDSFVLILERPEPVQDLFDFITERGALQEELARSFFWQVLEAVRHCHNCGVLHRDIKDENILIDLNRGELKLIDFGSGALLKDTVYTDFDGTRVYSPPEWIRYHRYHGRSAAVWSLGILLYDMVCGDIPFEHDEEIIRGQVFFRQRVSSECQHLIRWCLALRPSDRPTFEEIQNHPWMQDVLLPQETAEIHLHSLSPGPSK
Source text: Determination of the Pim kinase activity of a Formula I compound is possible by a number of direct and indirect detection methods.

[4] = test system: BaF3 PIM1 cells; test: cells; details: Mus musculus
Procedure: as §1, §2

[5] = read-out: Prolif BaF3 + IL3 (IC50)
[6] = BaF3, read-out: Prolif BaF3_PIM1 (IC50), BaF3 PIM1 cells, incubated overnight
[7] = read-out: Prolif BaF3 IL3 (IC50)
[8] = BaF3, read-out: Prolif BaF3 PIM1 (IC50), BaF3 PIM1 cells, incubated overnight

Q: What does the source list for `[2H]C([2H])([2H])OC1CCN(c2c(NC(=O)c3nc(-c4ccccc4F)sc3N)cnn2C)CCC1N` (stereo not drawn) [Example 491, 5-amino-N-[5-[4-amino-5-(trideuteriomethoxy)azepan-1-yl]-1-methyl-pyrazol-4-yl]-2-(2-fluorophenyl)thiazole-4-carboxamide]?
A: EC50 [1]: 67.9 nM; IC50 [2, 5]: > 25000 nM; Ki [3]: 0.055 nM; IC50 [4, 6]: 44.9 nM

Q: Which EC50 [1] does the source give for `Cn1ncc(NC(=O)c2nc(-c3c(F)cccc3F)sc2N)c1N1CCC(N)CC(F)(F)C1` (stereo not drawn) [Example 121, 5-Amino-N-(5-(5-amino-3,3-difluoroazepan-1-yl)-1-methyl-1H-pyrazol-4-yl)-2-(2,6-difluorophenyl)thiazole-4-carboxamide] here?
A: 50.2 nM

Q: And the IC50 [2, 7]?
A: 4800 nM

Q: And the IC50 [4, 8]?
A: 21 nM

Q: How did the EC50 [1] turn out when `Cn1ncc(NC(=O)c2nc(-c3ccccc3F)sc2N)c1N1CCNC[C@]2(CCO2)C1` (single isomer, unassigned) [Example 480] was run?
A: 6200 nM

Q: And the IC50 [2, 5]?
A: 7100 nM

Q: And the Ki [3]?
A: 0.045 nM

Q: What about the IC50 [4, 6] of the same molecule?
A: 737 nM

Q: How did the EC50 [1] turn out when `Cn1ncc(NC(=O)c2nc(-c3ccncc3F)sc2N)c1N1CC[C@@H](N)CC(F)(F)C1` [Example 447, 5-amino-N-[5-[(5R)-5-amino-3,3-difluoro-azepan-1-yl]-1-methyl-pyrazol-4-yl]-2-(3-fluoro-4-pyridyl)thiazole-4-carboxamide] was run?
A: 571 nM

Q: What about the IC50 [2, 5] of the same molecule?
A: 12900 nM

Q: What about the Ki [3] of the same molecule?
A: 0.014 nM

Q: And the IC50 [4, 6]?
A: 6.97 nM

Q: Which EC50 [1] does the source give for `Cn1ncc(NC(=O)c2nc(-c3c(F)cncc3F)sc2N)c1N1CC[C@@H](N)CC(F)(F)C1` [Example 455, 5-amino-N-[5-[(5R)-5-amino-3,3-difluoro-azepan-1-yl]-1-methyl-pyrazol-4-yl]-2-(3,5-difluoro-4-pyridyl)thiazole-4-carboxamide] here?
A: 221 nM

Q: What about the IC50 [2, 5] of the same molecule?
A: 3900 nM

Q: And the Ki [3]?
A: 0.009 nM

Q: And the IC50 [4, 6]?
A: 2.57 nM

Q: How did the EC50 [1] turn out when `COC1CCN(c2c(NC(=O)c3nc(-c4ccccc4F)sc3N)cnn2C)CCC1N` (stereo not drawn) [Example 324, 5-amino-N-[5-(4-amino-5-methoxy-azepan-1-yl)-1-methyl-pyrazol-4-yl]-2-(2-fluorophenyl)thiazole-4-carboxamide] was run?
A: 32 nM

Q: What about the IC50 [2, 5] of the same molecule?
A: 19600 nM

Q: And the Ki [3]?
A: 0.0694 nM

Q: What about the IC50 [4, 6] of the same molecule?
A: 33.6 nM

Q: `COC1CCN(c2c(NC(=O)c3nc(-c4ccccn4)sc3N)cnn2C)CCC1N` (racemic) [Example 322, 5-amino-N-[5-(4-amino-5-methoxy-azepan-1-yl)-1-methyl-pyrazol-4-yl]-2-(2-pyridyl)thiazole-4-carboxamide] was tested. Which EC50 [1] did it give?
A: 123 nM

Q: And the IC50 [2, 5]?
A: > 25000 nM

Q: And the Ki [3]?
A: 0.833 nM

Q: What about the IC50 [4, 6] of the same molecule?
A: 1400 nM

Q: With `[2H]C([2H])([2H])n1ncc(NC(=O)c2nc(-c3c(F)cccc3F)sc2N)c1N1CC[C@H](N)CC(F)(F)C1` [Example 493, 5-amino-N-[5-[(5S)-5-amino-3,3-difluoro-azepan-1-yl]-1-(trideuteriomethyl)pyrazol-4-yl]-2-(2,6-difluorophenyl)thiazole-4-carboxamide] as the molecule, how does the EC50 [1] read?
A: 3000 nM

Q: And the IC50 [2, 5]?
A: 7800 nM

Q: What about the IC50 [4, 6] of the same molecule?
A: 17.7 nM

Q: Which results are given for `COc1cc(F)c(-c2nc(C(=O)Nc3cnn(C)c3N3CCC(N)CC(F)(F)C3)c(N)s2)c(F)c1` (stereo not drawn) [Example 459, 5-amino-N-[5-(5-amino-3,3-difluoro-azepan-1-yl)-1-methyl-pyrazol-4-yl]-2-(2,6-difluoro-4-methoxy-phenyl)thiazole-4-carboxamide]?
A: EC50 [1]: 492 nM; IC50 [2, 5]: 7500 nM; Ki [3]: 0.006 nM; IC50 [4, 6]: 6.84 nM

Q: With `Cn1ncc(NC(=O)c2nc(-c3c(F)cncc3F)sc2N)c1N1CCC(N)CC(F)(F)C1` (racemic) [Example 438, 5-amino-N-[5-(5-amino-3,3-difluoro-azepan-1-yl)-1-methyl-pyrazol-4-yl]-2-(3,5-difluoro-4-pyridyl)thiazole-4-carboxamide] as the molecule, how does the EC50 [1] read?
A: 80.6 nM

Q: And the IC50 [2, 5]?
A: 20300 nM

Q: What about the Ki [3] of the same molecule?
A: 0.008 nM

Q: And the IC50 [4, 6]?
A: 3.03 nM

Q: Which results are given for `Cn1ncc(NC(=O)c2nc(-c3ccccn3)sc2N)c1N1CCNCC(F)(F)C1` [Example 223, 5-amino-N-(5-(6,6-difluoro-1,4-diazepan-1-yl)-1-methyl-1H-pyrazol-4-yl)-2-(pyridin-2-yl)thiazole-4-carboxamide]?
A: EC50 [1]: 20200 nM; IC50 [2, 7]: 12500 nM; Ki [3]: 0.206 nM; IC50 [4, 8]: 547 nM

Q: What does the source list for `Cn1ncc(NC(=O)c2nc(-c3c(F)cccc3F)sc2N)c1N1CC[C@@H](N)CC(F)(F)C1` [Example 167, (R)-5-amino-N-(5-(5-amino-3,3-difluoroazepan-1-yl)-1-methyl-1H-pyrazol-4-yl)-2-(2,6-difluorophenyl)thiazole-4-carboxamide]?
A: EC50 [1]: 1400 nM; IC50 [2, 7]: > 25000 nM; IC50 [4, 8]: 48.4 nM

Q: For `Cn1ncc(NC(=O)c2nc(-c3c(F)cccc3F)sc2N)c1N1CC[C@H](N)CC(F)(F)C1` [Example 166, (S)-5-amino-N-(5-(5-amino-3,3-difluoroazepan-1-yl)-1-methyl-1H-pyrazol-4-yl)-2-(2,6-difluorophenyl)thiazole-4-carboxamide], which EC50 [1] is on record?
A: 22.9 nM

Q: And the IC50 [2, 7]?
A: 13400 nM

Q: What about the IC50 [4, 8] of the same molecule?
A: 16.5 nM

Q: What does the source list for `Cc1cnc(F)c(-c2nc(C(=O)Nc3cnn(C)c3N3CCC[C@H](N)CC3)c(N)s2)c1` [Example 425, 5-amino-N-[5-[(4S)-4-aminoazepan-1-yl]-1-methyl-pyrazol-4-yl]-2-(2-fluoro-5-methyl-3-pyridyl)thiazole-4-carboxamide]?
A: IC50 [2, 5]: > 25000 nM; Ki [3]: 0.144 nM; IC50 [4, 6]: 2500 nM

Q: For `Cc1c(-c2nc(C(=O)Nc3cnn(C)c3N3CC[C@@H](N)[C@H](F)CC3)c(N)s2)cnn1C` [Example 429, 5-amino-N-[5-[(4R,5R)-4-amino-5-fluoro-azepan-1-yl]-1-methyl-pyrazol-4-yl]-2-(1,5-dimethylpyrazol-4-yl)thiazole-4-carboxamide], which IC50 [2, 5] is on record?
A: > 25000 nM

Q: And the Ki [3]?
A: 0.315 nM

Q: What about the IC50 [4, 6] of the same molecule?
A: 5300 nM

Q: Which results are given for `Nc1sc(-c2c(F)cccc2F)nc1C(=O)Nc1cnn(CC(F)F)c1N1CCCC[C@H](N)C1` [Example 103, (S)-5-amino-N-(5-(3-aminoazepan-1-yl)-1-(2,2-difluoroethyl)-1H-pyrazol-4-yl)-2-(2,6-difluorophenyl)thiazole-4-carboxamide]?
A: IC50 [2, 7]: 8200 nM; Ki [3]: 0.083 nM; IC50 [4, 8]: 4200 nM

Q: `[2H]C([2H])([2H])n1ncc(NC(=O)c2nc(-c3c(F)cccc3F)sc2N)c1N1CC[C@@H](N)CC(F)(F)C1` [Example 494, 5-amino-N-[5-[(5R)-5-amino-3,3-difluoro-azepan-1-yl]-1-(trideuteriomethyl)pyrazol-4-yl]-2-(2,6-difluorophenyl)thiazole-4-carboxamide] was tested. Which EC50 [1] did it give?
A: 54.6 nM

Q: What about the IC50 [2, 5] of the same molecule?
A: 8900 nM

Q: And the IC50 [4, 6]?
A: 13.4 nM

Q: For `Cn1ncc(NC(=O)c2nc(-c3ccncc3F)sc2N)c1N1CCC(N)CC(F)(F)C1` (racemic) [Example 426, 5-amino-N-[5-(5-amino-3,3-difluoro-azepan-1-yl)-1-methyl-pyrazol-4-yl]-2-(3-fluoro-4-pyridyl)thiazole-4-carboxamide], which IC50 [2, 5] is on record?
A: 24800 nM

Q: What about the Ki [3] of the same molecule?
A: 0.034 nM

Q: What about the IC50 [4, 6] of the same molecule?
A: 25.1 nM

Q: How did the IC50 [2, 5] turn out when `Cn1ncc(NC(=O)c2nc(-c3ccccc3F)sc2N)c1N1CCCC(C)(N)CC1` (stereo not drawn) [Example 433, 5-amino-N-[5-(4-amino-4-methyl-azepan-1-yl)-1-methyl-pyrazol-4-yl]-2-(2-fluorophenyl)thiazole-4-carboxamide] was run?
A: 11100 nM

Q: What about the Ki [3] of the same molecule?
A: 0.024 nM

Q: And the IC50 [4, 6]?
A: 1300 nM
